Experimental findings from PubChem BioAssay (NCI) are described below.

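Exposure lasted 48 hours, with cells grown in 96-well plates and compounds tested at five concentrations. GI50 is the concentration that inhibits growth by half. Definition used: TGI = concentration required for complete inhibition of growth.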

Test systems include A549 NSCLC; COLO 205 colon; HCT-15 colon; MDA-MB-435; MOLT-4 leukemia; NCI/ADR-RES ovarian; OVCAR-5 ovarian.
Assay in all cases: NCI anticancer screen, dose series, 48 h

With `CN(/N=C/c1ccccc1O)c1ccc2ccccc2n1`, the TGI with A549 NSCLC was 29.8 µM; in the assay on COLO 205 colon, more than 100 µM; in the assay on HCT-15 colon it was more than 100 µM; in the assay with MDA-MB-435, more than 100 µM; with MOLT-4 leukemia it was 62.6 µM; in the assay on NCI/ADR-RES ovarian it was more than 100 µM. The TGI in the assay on OVCAR-5 ovarian was more than 100 µM.

For `CCN(CC)CCCNc1n[n+]([O-])c2ccccc2[n+]1[O-]`, the TGI was 39.7 µM with A549 NSCLC; 40.1 µM in the assay on COLO 205 colon; 31.5 µM in the assay on HCT-15 colon; more than 100 µM in the assay on MDA-MB-435; 11.4 µM in the assay with MOLT-4 leukemia; more than 100 µM in the assay with NCI/ADR-RES ovarian. The same compound returned a TGI with OVCAR-5 ovarian of 69.7 µM.

With `CCCCc1n(Cc2ccc3ccccc3n2)cc[n+]1Cc1ccc2ccccc2n1`, the GI50 with A549 NSCLC is 4.75 µM; with COLO 205 colon, 0.535 µM; in the assay with HCT-15 colon, 14.8 µM; in the assay with MDA-MB-435 it was 0.71 µM; with MOLT-4 leukemia, 1.81 µM; in the assay on NCI/ADR-RES ovarian, more than 100 µM. Besides, the GI50 in the assay on OVCAR-5 ovarian is 2.66 µM. The TGI in the assay on A549 NSCLC was 18.6 µM; in the assay with COLO 205 colon, 2.28 µM; with HCT-15 colon, 31.5 µM; in the assay on MDA-MB-435, 7.78 µM; in the assay on MOLT-4 leukemia, 11 µM; in the assay with NCI/ADR-RES ovarian, more than 100 µM. Further, the TGI in the assay with OVCAR-5 ovarian worked out at 13.7 µM.

For the compound `COc1cc(NS(C)(=O)=O)ccc1Cc1c2ccccc2nc2ccccc12`, the GI50 in the assay with A549 NSCLC was 0.0164 µM; in the assay with COLO 205 colon it was 0.0812 µM; in the assay with HCT-15 colon, 0.371 µM; in the assay on MDA-MB-435, 1.23 µM; with NCI/ADR-RES ovarian it was 1.44 µM; in the assay with OVCAR-5 ovarian, 1.03 µM. Besides, the TGI came to 1.06 µM in the assay with A549 NSCLC; 2.4 µM in the assay with COLO 205 colon; 2.76 µM in the assay on HCT-15 colon; 11.3 µM with MDA-MB-435; 0.0265 µM in the assay on MOLT-4 leukemia; 10 µM with NCI/ADR-RES ovarian. In the assay on OVCAR-5 ovarian, this compound yielded a TGI of 4.17 µM.

Take `COC(=O)C1=C(C(=O)ON)[C@@H]2C=C[C@@]1([C@@H](Cc1ccccc1)Nc1ccccc1)O2`: the GI50 in the assay on A549 NSCLC is 16.9 µM; in the assay on COLO 205 colon it was 1.77 µM; in the assay with HCT-15 colon it was 1.76 µM; in the assay on MDA-MB-435, 4.33 µM; in the assay on MOLT-4 leukemia, 2.86 µM; in the assay on NCI/ADR-RES ovarian it was 17.4 µM. Besides, the GI50 in the assay with OVCAR-5 ovarian is 15.6 µM. The TGI in the assay on A549 NSCLC was 32.2 µM; in the assay on COLO 205 colon it was 3.57 µM; in the assay with HCT-15 colon it was 4.1 µM; in the assay with MDA-MB-435, 16.5 µM; in the assay with MOLT-4 leukemia, 7.71 µM; in the assay on NCI/ADR-RES ovarian it was 35.9 µM. In the assay on OVCAR-5 ovarian, this compound yielded a TGI of 31 µM.

Consider `CCN1C(=O)N(CC)C2C1NN=c1s/c(=C\c3ccc(C(F)(F)F)cc3)c(=O)n12` (stereo not drawn), for which the GI50 with A549 NSCLC was 0.395 µM; in the assay on COLO 205 colon, 0.256 µM; with HCT-15 colon it was 0.318 µM; in the assay with MDA-MB-435 it was 0.169 µM; in the assay on MOLT-4 leukemia it was 0.417 µM; with NCI/ADR-RES ovarian, 0.291 µM. Also, in the assay with OVCAR-5 ovarian, the GI50 was 0.619 µM. For the same compound, the TGI in the assay on A549 NSCLC was more than 43.1 µM; with COLO 205 colon it was 0.888 µM; in the assay with HCT-15 colon, more than 35.6 µM; in the assay with MDA-MB-435, 0.437 µM; in the assay on MOLT-4 leukemia, 16.3 µM; in the assay with OVCAR-5 ovarian it was more than 43.8 µM.

Take `FC(F)(F)c1cc(NC(=S)N2c3ccccc3-n3cccc3C2c2cccnc2)cc(C(F)(F)F)c1` (stereo not drawn): the GI50 with A549 NSCLC is 9.25 µM; in the assay on COLO 205 colon it was 9.07 µM; in the assay with HCT-15 colon, 4.76 µM; in the assay with MDA-MB-435, 6.57 µM; with MOLT-4 leukemia, 3.96 µM; in the assay on NCI/ADR-RES ovarian it was 4.18 µM. Further, the GI50 in the assay on OVCAR-5 ovarian is 22 µM. Besides, the TGI in the assay with A549 NSCLC stood at 26.8 µM; in the assay with COLO 205 colon, 21.6 µM; in the assay on HCT-15 colon, 27.7 µM; in the assay with MDA-MB-435, 22.1 µM; with MOLT-4 leukemia, 20.2 µM; with NCI/ADR-RES ovarian, 18.2 µM. The TGI in the assay on OVCAR-5 ovarian was 59.2 µM.

Turning to `CC1(C)N=c2cc3c(cc2N1c1ccc(Cl)cc1)=Nc1ccccc1N3c1ccc(Cl)cc1`, the GI50 was 5.93 µM with A549 NSCLC; 4.66 µM with COLO 205 colon; 4.26 µM with HCT-15 colon; 12.1 µM in the assay with MDA-MB-435; 1.53 µM with MOLT-4 leukemia; 5.21 µM in the assay with NCI/ADR-RES ovarian. Moreover, in the assay on OVCAR-5 ovarian, the GI50 was 8.13 µM. Further, the TGI in the assay with A549 NSCLC is more than 100 µM; in the assay on COLO 205 colon, 21.8 µM; with HCT-15 colon, more than 100 µM; with MDA-MB-435, more than 100 µM; in the assay with MOLT-4 leukemia, 4.04 µM; with NCI/ADR-RES ovarian, more than 100 µM. The TGI with OVCAR-5 ovarian is more than 100 µM.

With `O=[N+]([O-])c1ccc(N=Nc2c(Cl)cc(O)cc2Cl)cc1`, the GI50 is 2.88 µM in the assay with A549 NSCLC; 1.82 µM in the assay on COLO 205 colon; 2.02 µM in the assay on HCT-15 colon; 0.943 µM in the assay on MDA-MB-435; 0.435 µM in the assay on MOLT-4 leukemia; 0.863 µM with NCI/ADR-RES ovarian. Besides, the GI50 in the assay with OVCAR-5 ovarian was 4.22 µM. The TGI with A549 NSCLC turned out to be 11.8 µM; with COLO 205 colon, 4.17 µM; with HCT-15 colon it was 10.3 µM; in the assay with MDA-MB-435, 3.16 µM; in the assay on MOLT-4 leukemia, 2.99 µM; in the assay with NCI/ADR-RES ovarian, 8.49 µM. In the assay with OVCAR-5 ovarian, the TGI was 16.5 µM.

On to `Cc1nc2ccccc2c(/C=C/c2ccccc2)c1C(=O)/C=C/c1ccc(C(F)(F)F)cc1`, for which the GI50 in the assay on A549 NSCLC was 2.03 µM; in the assay on COLO 205 colon it was 2.13 µM; in the assay on HCT-15 colon it was 0.721 µM; in the assay on MDA-MB-435, 1.86 µM; with MOLT-4 leukemia, 0.623 µM; in the assay with NCI/ADR-RES ovarian, 2.19 µM. Moreover, in the assay on OVCAR-5 ovarian, the GI50 is 1.93 µM. Further, the TGI in the assay with A549 NSCLC was 4.84 µM; in the assay with COLO 205 colon it was 5.4 µM; with HCT-15 colon, 3.28 µM; with MDA-MB-435, 3.55 µM; with MOLT-4 leukemia, more than 100 µM; in the assay with NCI/ADR-RES ovarian it was 7.19 µM. This compound also yielded a TGI with OVCAR-5 ovarian of 4.45 µM.

As to `O=C(Nc1ccccc1Cl)c1ccc(NC2=C(Cl)C(=O)N(C3CCCCC3)C2=O)cc1`, the GI50 was 13.3 µM in the assay on A549 NSCLC; 18.7 µM with COLO 205 colon; 6.79 µM in the assay with HCT-15 colon; 9.61 µM in the assay on MDA-MB-435; 5.56 µM in the assay on MOLT-4 leukemia; 29.3 µM with NCI/ADR-RES ovarian. In addition, in the assay with OVCAR-5 ovarian, the GI50 was 49.5 µM. Besides, the TGI with A549 NSCLC was determined as 32.9 µM; with COLO 205 colon, 38.3 µM; in the assay on HCT-15 colon it was 25.2 µM; with MDA-MB-435, 44.1 µM; with MOLT-4 leukemia, 20.4 µM; in the assay with NCI/ADR-RES ovarian, 82.8 µM. Besides, the TGI with OVCAR-5 ovarian came to 128 µM.
